In BindingDB's records for doi:10.1016/j.bmc.2009.10.004 (Kinki University, 2010):

Target: Beta-secretase 1 (Homo sapiens, UniProt P56817)
Test: Competitive inhibition of human recombinant BACE1 by Lineweaver-Burke plot analysis

Beta-secretase 1, sequence (P56817 whole entry): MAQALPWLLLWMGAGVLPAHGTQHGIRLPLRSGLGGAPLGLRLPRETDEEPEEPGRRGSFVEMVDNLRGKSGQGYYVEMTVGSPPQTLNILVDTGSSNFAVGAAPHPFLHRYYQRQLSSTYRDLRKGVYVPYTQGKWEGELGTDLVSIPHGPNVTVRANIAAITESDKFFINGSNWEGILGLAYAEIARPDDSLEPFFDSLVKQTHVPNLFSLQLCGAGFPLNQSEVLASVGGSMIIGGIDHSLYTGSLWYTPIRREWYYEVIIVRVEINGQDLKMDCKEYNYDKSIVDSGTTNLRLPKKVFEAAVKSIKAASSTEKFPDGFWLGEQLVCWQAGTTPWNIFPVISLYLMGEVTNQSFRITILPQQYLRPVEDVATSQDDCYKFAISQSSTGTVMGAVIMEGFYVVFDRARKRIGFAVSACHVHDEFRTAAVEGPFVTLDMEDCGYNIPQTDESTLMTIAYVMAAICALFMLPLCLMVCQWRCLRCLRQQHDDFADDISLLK

Ki: 11.3 µM
SMILES: COC(=O)CCc1c(O)cc2occc2c1OCC=C(C)C [6,7-Furano-5-prenyloxy hydrocoumaric acid methyl ester]
